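Tested at 5 concentrations; 48 h exposure; 96-well plates; endpoints linearly interpolated, else capped at highest concentration. At the GI50, growth is halved.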 The source made the active and inactive calls. Rule as the data show it: active = GI50 up to about 1.1 µM and inactive = higher.
Columns and labels:
Assay in all cases: NCI-60 cell line screen, 48 h
MDA-MB-435 = tested on: MDA-MB-435
SF-539 = tested on: SF-539
A549 = tested on: A549
UO-31 = tested on: UO-31
NCI-H460 = tested on: NCI-H460
SF-268 = tested on: SF-268
NCI-H226 = tested on: NCI-H226
CAKI-1 = tested on: CAKI-1
T47D = tested on: T47D
HCC 2998 = tested on: HCC 2998
OVCAR-5 = tested on: OVCAR-5
MCF7 = tested on: MCF7
TK-10 = tested on: TK-10
SK-MEL-5 = tested on: SK-MEL-5
HCT-15 = tested on: HCT-15
RXF 393 = tested on: RXF 393
MOLT-4 = tested on: MOLT-4
HT-29 = tested on: HT-29
Malme-3M = tested on: Malme-3M
NCI-H23 = tested on: NCI-H23
RPMI-8226 = tested on: RPMI-8226
MDA-MB-231 = tested on: MDA-MB-231
HOP-62 = tested on: HOP-62
U-251 = tested on: U-251
UACC-257 = tested on: UACC-257
M14 = tested on: M14
HCT-116 = tested on: HCT-116
OVCAR-8 = tested on: OVCAR-8
SW-620 = tested on: SW-620
LOX IMVI = tested on: LOX IMVI
SK-MEL-28 = tested on: SK-MEL-28
K562 = tested on: K562
SK-MEL-2 = tested on: SK-MEL-2
A498 = tested on: A498
NCI-H522 = tested on: NCI-H522
786-0 = tested on: 786-0
SK-OV-3 = tested on: SK-OV-3
HOP-92 = tested on: HOP-92
IGROV-1 = tested on: IGROV-1
BT-549 = tested on: BT-549
SF-295 = tested on: SF-295
KM12 = tested on: KM12
SN12C = tested on: SN12C
COLO 205 = tested on: COLO 205
MDA-N = tested on: MDA-N
EKVX = tested on: EKVX
UACC-62 = tested on: UACC-62
OVCAR-3 = tested on: OVCAR-3
SR = tested on: SR
ACHN = tested on: ACHN
Hs-578T = tested on: Hs-578T
PC-3 = tested on: PC-3
HL-60 = tested on: HL-60
OVCAR-4 = tested on: OVCAR-4
NCI/ADR-RES = tested on: NCI/ADR-RES
SNB-19 = tested on: SNB-19
CCRF-CEM = tested on: CCRF-CEM
SNB-75 = tested on: SNB-75
DU-145 = tested on: DU-145

For `C/C(=N\Nc1nc2cc(Cl)ccc2s1)c1ccccn1`, the GI50 (MDA-MB-435) was 1.83 µM (inactive), the GI50 (SF-539) was 1.21 µM (inactive) and the GI50 (A549) was 0.755 µM (active). For the same compound, the GI50 (UO-31) was 0.0685 µM (active), the GI50 (NCI-H460) was 0.673 µM (active) and the GI50 (SF-268) was 0.365 µM (active). The GI50 (NCI-H226) was 0.32 µM (active), the GI50 (CAKI-1) was 0.0653 µM (active) and the GI50 (T47D) was 0.402 µM (active). The GI50 (HCC 2998) was 11.5 µM (inactive), the GI50 (OVCAR-5) was 2.77 µM (inactive) and the GI50 (MCF7) was 0.0867 µM (active). For the same compound, the GI50 (TK-10) was 2.74 µM (inactive), the GI50 (SK-MEL-5) was 0.428 µM (active) and the GI50 (HCT-15) was 0.111 µM. For the same compound, the GI50 (RXF 393) was 1.99 µM (inactive), the GI50 (MOLT-4) was 0.0346 µM (active) and the GI50 (HT-29) was 0.0824 µM (active). The GI50 (Malme-3M) was 0.834 µM (active), the GI50 (NCI-H23) was 0.403 µM (active) and the GI50 (RPMI-8226) was 0.264 µM (active). The GI50 (MDA-MB-231) was 0.405 µM (active), the GI50 (HOP-62) was 0.904 µM (active) and the GI50 (U-251) was 0.877 µM (active). For the same compound, the GI50 (UACC-257) was 0.519 µM (active), the GI50 (M14) was 0.443 µM (active) and the GI50 (HCT-116) was 0.301 µM (active). The GI50 (OVCAR-8) was 0.177 µM (active), the GI50 (SW-620) was 0.817 µM (active) and the GI50 (LOX IMVI) was 0.459 µM (active). For the same compound, the GI50 (SK-MEL-28) was 2.56 µM (inactive), the GI50 (K562) was 0.136 µM (active) and the GI50 (SK-MEL-2) was 0.442 µM (active). The GI50 (A498) was 1.61 µM (inactive), the GI50 (NCI-H522) was 0.189 µM (active) and the GI50 (786-0) was 0.617 µM (active). For the same compound, the GI50 (SK-OV-3) was 0.404 µM (active), the GI50 (HOP-92) was 0.473 µM (active) and the GI50 (IGROV-1) was 0.127 µM (active). The GI50 (BT-549) was 4.9 µM (inactive), the GI50 (SF-295) was 0.914 µM (active) and the GI50 (KM12) was 0.63 µM (active). The GI50 (SN12C) was 0.372 µM (active), the GI50 (COLO 205) was 0.09 µM (active) and the GI50 (MDA-N) was 1.73 µM (inactive). For the same compound, the GI50 (EKVX) was 0.129 µM (active), the GI50 (UACC-62) was 0.673 µM (active) and the GI50 (OVCAR-3) was 0.0946 µM (active). For the same compound, the GI50 (SR) was 0.228 µM (active), the GI50 (ACHN) was 0.191 µM (active) and the GI50 (Hs-578T) was 2.89 µM (inactive). The GI50 (PC-3) was 1.35 µM (inactive), the GI50 (HL-60) was 0.14 µM (active) and the GI50 (OVCAR-4) was 0.39 µM (active). For the same compound, the GI50 (NCI/ADR-RES) was 0.343 µM (active), the GI50 (SNB-19) was 1.01 µM (active) and the GI50 (CCRF-CEM) was 0.373 µM (active). The GI50 (SNB-75) was 1.72 µM (inactive).

With `O=C(Nc1ncc([N+](=O)[O-])s1)c1ccccc1O` [TIZOXANIDE] the GI50 (MDA-MB-435) was 22.6 µM (inactive), the GI50 (SF-539) was 45 µM (inactive) and the GI50 (A549) was 19.3 µM (inactive). For the same compound, the GI50 (UO-31) was 23.7 µM (inactive), the GI50 (NCI-H460) was 18 µM (inactive) and the GI50 (DU-145) was 21 µM (inactive). The GI50 (SF-268) was 13.6 µM (inactive), the GI50 (NCI-H226) was 7.55 µM (inactive) and the GI50 (CAKI-1) was 29.6 µM (inactive). The GI50 (T47D) was 28.3 µM (inactive), the GI50 (HCC 2998) was 13.6 µM (inactive) and the GI50 (OVCAR-5) was 32.9 µM (inactive). For the same compound, the GI50 (MCF7) was 13.7 µM (inactive), the GI50 (TK-10) was 21.4 µM (inactive) and the GI50 (SK-MEL-5) was 15.2 µM (inactive). The GI50 (HCT-15) was 19.1 µM, the GI50 (RXF 393) was 3.39 µM (inactive) and the GI50 (MOLT-4) was 18.5 µM (inactive). The GI50 (HT-29) was 14.5 µM (inactive), the GI50 (Malme-3M) was 12.9 µM (inactive) and the GI50 (NCI-H23) was 12.5 µM (inactive). For the same compound, the GI50 (RPMI-8226) was 7 µM (inactive), the GI50 (MDA-MB-231) was 23.5 µM (inactive) and the GI50 (HOP-62) was 20 µM (inactive). The GI50 (U-251) was 14.9 µM (inactive), the GI50 (UACC-257) was 20.7 µM (inactive) and the GI50 (M14) was 20 µM (inactive). For the same compound, the GI50 (HCT-116) was 11.1 µM (inactive), the GI50 (OVCAR-8) was 17.9 µM (inactive) and the GI50 (SW-620) was 34.1 µM (inactive). The GI50 (LOX IMVI) was 24.6 µM (inactive), the GI50 (SK-MEL-28) was 26.4 µM (inactive) and the GI50 (K562) was 28.2 µM (inactive). The GI50 (SK-MEL-2) was 12.5 µM (inactive), the GI50 (A498) was 8.75 µM (inactive) and the GI50 (NCI-H522) was 3.13 µM (inactive). For the same compound, the GI50 (786-0) was 24.4 µM (inactive), the GI50 (SK-OV-3) was 12.2 µM (inactive) and the GI50 (HOP-92) was 2.74 µM (inactive). For the same compound, the GI50 (IGROV-1) was 23.6 µM (inactive), the GI50 (BT-549) was 19.1 µM (inactive) and the GI50 (SF-295) was 7.89 µM (inactive). The GI50 (KM12) was 15.3 µM (inactive), the GI50 (SN12C) was 17.5 µM (inactive) and the GI50 (COLO 205) was 15.2 µM (inactive). For the same compound, the GI50 (MDA-N) was 27 µM (inactive), the GI50 (EKVX) was 16.5 µM (inactive) and the GI50 (UACC-62) was 4.66 µM (inactive). The GI50 (OVCAR-3) was 6.84 µM (inactive), the GI50 (ACHN) was 18.7 µM (inactive) and the GI50 (Hs-578T) was 6.58 µM (inactive). For the same compound, the GI50 (PC-3) was 11.9 µM (inactive), the GI50 (OVCAR-4) was 38.3 µM (inactive) and the GI50 (NCI/ADR-RES) was 13.6 µM (inactive). The GI50 (SNB-19) was 16.2 µM (inactive) and the GI50 (SNB-75) was 18.1 µM (inactive).

`O=C(O)CC1NC(/C(=C/c2ccccc2O)NC(=O)c2ccccc2)OC1=O` (configuration not stated) was tested, and the GI50 (MDA-MB-435) was 9.29 µM (inactive), the GI50 (SF-539) was 22.3 µM (inactive) and the GI50 (A549) was > 100 µM (inactive). For the same compound, the GI50 (UO-31) was 33.9 µM (inactive), the GI50 (NCI-H460) was > 58.7 µM (inactive) and the GI50 (DU-145) was > 79.6 µM (inactive). The GI50 (SF-268) was > 23.3 µM (inactive), the GI50 (NCI-H226) was 17 µM (inactive) and the GI50 (CAKI-1) was > 56.1 µM (inactive). The GI50 (T47D) was 11.7 µM (inactive), the GI50 (HCC 2998) was > 40.4 µM (inactive) and the GI50 (OVCAR-5) was > 100 µM (inactive). For the same compound, the GI50 (MCF7) was 3.97 µM (inactive), the GI50 (TK-10) was 61 µM (inactive) and the GI50 (SK-MEL-5) was > 73.5 µM (inactive). The GI50 (HCT-15) was 30 µM, the GI50 (RXF 393) was 29 µM (inactive) and the GI50 (MOLT-4) was > 100 µM (inactive). For the same compound, the GI50 (HT-29) was > 96.6 µM (inactive), the GI50 (Malme-3M) was 55.7 µM (inactive) and the GI50 (NCI-H23) was 26.1 µM (inactive). The GI50 (RPMI-8226) was > 100 µM (inactive), the GI50 (MDA-MB-231) was 22.1 µM (inactive) and the GI50 (HOP-62) was 14 µM (inactive). For the same compound, the GI50 (U-251) was 24.7 µM (inactive), the GI50 (UACC-257) was > 58.5 µM (inactive) and the GI50 (M14) was > 78 µM (inactive). For the same compound, the GI50 (HCT-116) was 45.9 µM (inactive), the GI50 (OVCAR-8) was 27.3 µM (inactive) and the GI50 (SW-620) was > 100 µM (inactive). The GI50 (LOX IMVI) was 50.9 µM (inactive), the GI50 (SK-MEL-28) was > 100 µM (inactive) and the GI50 (K562) was > 100 µM (inactive). The GI50 (SK-MEL-2) was 47.2 µM (inactive), the GI50 (A498) was > 75 µM (inactive) and the GI50 (NCI-H522) was 33 µM (inactive). For the same compound, the GI50 (786-0) was 30.3 µM (inactive), the GI50 (SK-OV-3) was 23 µM (inactive) and the GI50 (HOP-92) was 28.7 µM (inactive). For the same compound, the GI50 (IGROV-1) was 14.3 µM (inactive), the GI50 (BT-549) was 13.9 µM (inactive) and the GI50 (SF-295) was 26.6 µM (inactive). The GI50 (KM12) was 5.14 µM (inactive), the GI50 (SN12C) was 48.8 µM (inactive) and the GI50 (COLO 205) was > 100 µM (inactive). The GI50 (MDA-N) was 29.4 µM (inactive), the GI50 (EKVX) was > 33.7 µM (inactive) and the GI50 (UACC-62) was 25.8 µM (inactive). The GI50 (OVCAR-3) was > 33.5 µM (inactive), the GI50 (ACHN) was 19.3 µM (inactive) and the GI50 (Hs-578T) was 24.7 µM (inactive). For the same compound, the GI50 (PC-3) was 49 µM (inactive), the GI50 (HL-60) was > 43.9 µM (inactive) and the GI50 (OVCAR-4) was 7.59 µM (inactive). For the same compound, the GI50 (NCI/ADR-RES) was 19.5 µM (inactive), the GI50 (SNB-19) was 17.8 µM (inactive) and the GI50 (CCRF-CEM) was > 100 µM (inactive). The GI50 (SNB-75) was 7.21 µM (inactive).
